{"source": "patent US4950663A", "about": "“Antihypertensive composition” (priority 1989, dated 1990)", "key": {"[1]": {"experiment": "Comparative cardiovascular effects (heart rate, mean arterial pressure, coronary blood flow) after intravenous dosing in anesthetized dogs", "format": "in vivo", "conditions": "for effect on heart rate (in words): M2 at 1600 μg/kg, diltiazem at 400 μg/kg; for reduction in heart rate: M2 at a dosage 4 times greater than diltiazem"}, "Liposolubility": {"experiment": "Liposolubility", "format": "physicochemical"}, "[2]": {"conditions": "dogs; test of dose required to cause a 50% increase in blood flow; cited from earlier work"}, "[3]": {"experiment": "Elimination and metabolism", "format": "in vivo"}, "Side effects": {"experiment": "Side effects", "format": "in vivo", "conditions": "compositions"}, "[4]": {"conditions": "anesthetized dogs, 50 μg/kg intravenous, value at 0 μg/kg: D 59, M2 49"}, "[5]": {"conditions": "anesthetized dogs, 50 μg/kg intravenous, value at 0 μg/kg: D 99, M2 99"}, "[6]": {"conditions": "anesthetized dogs, 200 μg/kg intravenous, value at 0 μg/kg: D 59, M2 49"}, "[7]": {"conditions": "anesthetized dogs, 200 μg/kg intravenous, value at 0 μg/kg: D 99, M2 99"}, "[8]": {"conditions": "anesthetized dogs, 200 μg/kg intravenous, value at 0 μg/kg: D 130, M2 127"}}, "note": "“Also recorded” adds a separate entry of the source. Counter-ions that a name gives are not always drawn.", "data": [{"smiles": "COc1ccc([C@@H]2Sc3ccccc3N(CCN(C)C)C(=O)[C@@H]2OC(C)=O)cc1", "note": "[Diltiazem, (+)-cis-3-(acetyloxy)-5-[2-dimethylamino-ethyl]-2,3-dihydro-2-(4-methoxyphenyl)-l,5-benzothiaz epin-4(5H)one monohydrochloride, reference compound]", "values": [{"measurement": "Coronary blood flow", "setting": "[1]; anesthetized dogs, 15 μg/kg intravenous, value at 0 μg/kg: D 59", "result": 67, "unit": "mL/min"}, {"measurement": "Mean arterial pressure", "setting": "[1]; anesthetized dogs, 15 μg/kg intravenous, value at 0 μg/kg: D 99", "result": 94, "unit": "mm Hg"}, {"measurement": "Coronary blood flow", "setting": "[1]; [4]", "result": 73, "unit": "mL/min"}, {"measurement": "Mean arterial pressure", "setting": "[1]; [5]", "result": 84, "unit": "mm Hg"}, {"measurement": "Coronary blood flow", "setting": "[1]; [6]", "result": 91, "unit": "mL/min"}, {"measurement": "Mean arterial pressure", "setting": "[1]; [7]", "result": 67, "unit": "mm Hg"}, {"measurement": "Heart rate", "setting": "[1]; [8]", "result": 122, "unit": "beats/minute"}, {"measurement": "Coronary blood flow", "setting": "[1]; anesthetized dogs, 400 μg/kg intravenous, value at 0 μg/kg: D 59", "result": 83, "unit": "mL/min"}, {"measurement": "Mean arterial pressure", "setting": "[1]; anesthetized dogs, 400 μg/kg intravenous, value at 0 μg/kg: D 99", "result": 58, "unit": "mm Hg"}, {"measurement": "Maximal reduction in mean arterial pressure", "setting": "[1]; anesthetized dogs, intravenous", "result": -38, "unit": "%"}, {"measurement": "increase in coronary blood flow", "setting": "[1]; anesthetized dogs, intravenous", "result": "> 50", "unit": "%"}, {"measurement": "effect on heart rate (in words)", "setting": "[1]; anesthetized dogs, intravenous", "result": "significant effect on the heart rate"}, {"measurement": "reduction in heart rate", "setting": "[1]; anesthetized dogs, intravenous", "result": "> 20", "unit": "%"}]}, {"smiles": "CNCCN1C(=O)C(O)C(c2ccc(OC)cc2)Sc2ccccc21", "note": "(stereo not drawn) [M2, N-desmethyl, deacetyl diltiazem]", "values": [{"measurement": "Coronary blood flow", "setting": "[1]; [4]", "result": 53, "unit": "mL/min"}, {"measurement": "Mean arterial pressure", "setting": "[1]; [5]", "result": 96, "unit": "mm Hg"}, {"measurement": "Heart rate", "setting": "[1]; anesthetized dogs, 50 μg/kg intravenous, value at 0 μg/kg: D 130, M2 127", "result": 127, "unit": "beats/minute"}, {"measurement": "Coronary blood flow", "setting": "[1]; [6]", "result": 55, "unit": "mL/min"}, {"measurement": "Mean arterial pressure", "setting": "[1]; [7]", "result": 88, "unit": "mm Hg"}, {"measurement": "Heart rate", "setting": "[1]; [8]", "result": 127, "unit": "beats/minute"}, {"measurement": "Coronary blood flow", "setting": "[1]; anesthetized dogs, 800 μg/kg intravenous, value at 0 μg/kg: M2 49", "result": 61, "unit": "mL/min"}, {"measurement": "Mean arterial pressure", "setting": "[1]; anesthetized dogs, 800 μg/kg intravenous, value at 0 μg/kg: M2 99", "result": 74, "unit": "mm Hg"}, {"measurement": "Heart rate", "setting": "[1]; anesthetized dogs, 800 μg/kg intravenous, value at 0 μg/kg: M2 127", "result": 125, "unit": "beats/minute"}, {"measurement": "Coronary blood flow", "setting": "[1]; anesthetized dogs, 1600 μg/kg intravenous, value at 0 μg/kg: M2 49", "result": 61, "unit": "mL/min"}, {"measurement": "Mean arterial pressure", "setting": "[1]; anesthetized dogs, 1600 μg/kg intravenous, value at 0 μg/kg: M2 99", "result": 63, "unit": "mm Hg"}, {"measurement": "Heart rate", "setting": "[1]; anesthetized dogs, 1600 μg/kg intravenous, value at 0 μg/kg: M2 127", "result": 119, "unit": "beats/minute"}, {"measurement": "Maximal reduction in mean arterial pressure", "setting": "[1]; anesthetized dogs, intravenous", "result": -36, "unit": "%"}, {"measurement": "coronary blood flow dilation relative to diltiazem", "setting": "[1]; anesthetized dogs, intravenous", "result": "about half that effect; also recorded: about half that of diltiazem"}, {"measurement": "increase in coronary blood flow", "setting": "[1]; anesthetized dogs, intravenous", "result": "> 25", "unit": "%"}, {"measurement": "peripheral dilation capacity relative to diltiazem", "setting": "[1]; anesthetized dogs, intravenous", "result": "equivalent peripheral dilation capacity"}, {"measurement": "effect on heart rate (in words)", "setting": "[1]; anesthetized dogs, intravenous", "result": "devoted of major effect upon heart rate"}, {"measurement": "effect on heart rate (in words)", "setting": "[1]; anesthetized dogs, intravenous, deacetyl diltiazem", "result": "only a slight effect on the heart rate"}, {"measurement": "reduction in heart rate", "setting": "[1]; anesthetized dogs, intravenous", "result": "< 10", "unit": "%"}, {"measurement": "serious cardiovascular adverse effects", "setting": "[1]; anesthetized dogs, maximal dosage 4 times greater than diltiazem", "result": "without serious cardiovascular adverse effects"}, {"measurement": "effect on mean arterial pressure (in words)", "setting": "[1]; anesthetized dogs, various intravenous dosages", "result": "decreases the mean arterial pressure"}, {"measurement": "decrease in heart rate compared with diltiazem", "setting": "[1]; compared with diltiazem", "result": "decrease the heart rate to a lesser degree than diltiazem"}, {"measurement": "intravenous dosages suitable for use as a coronary dilator", "setting": "[1]; intravenous", "result": "50 to 1600", "unit": "µg/kg"}, {"measurement": "intravenous dosages useful to decrease blood pressure or mean arterial pressure", "setting": "[1]; intravenous", "result": "200 to 1600", "unit": "µg/kg"}, {"measurement": "liposolubility compared with diltiazem", "setting": "Liposolubility", "result": "lower liposolubility than diltiazem"}, {"measurement": "effect on coronary blood flow relative to diltiazem", "setting": "[2]", "result": 20, "unit": "%"}, {"measurement": "elimination half life compared with diltiazem", "setting": "[3]; compared with diltiazem", "result": "shorter elimination half life"}, {"measurement": "metabolism by the liver", "setting": "[3]; in vivo", "result": "not metabolized extensively by the liver"}, {"measurement": "side effects compared with diltiazem", "setting": "Side effects", "result": "less side effects than diltiazem"}]}]}
